# Measured values as given in patent US20160228575A1, “NARINGENIN COMPLEXES AND METHODS OF USE THEREOF” (THE GENERAL HOSPITAL CORPORATION, priority 2008, published 2016).
# What was measured:
# [1] = test system: HCV (JFH-1) secreted by infected Huh-7.5.1 cells; assay: HCV secretion by JFH-1 infected Huh-7.5.1 cells (HCV core antigen ELISA, HCV positive strand RNA qPCR); format: cell-based, Hepatitis C virus
# Method: The Huh-7.5.1 human hepatoma cell line and a plasmid containing the JFH-1 genome were kindly provided by Dr. Chisari (Scripps Research Institute, CA) and Dr. Wakita (National Institute of Infectious Diseases, Tokyo) respectively. Huh-7.5.1 cells were cultured in DMEM medium supplemented with 10% FBS, 200 units/ml penicillin and […] streptomycin in a 5% CO2-humidified incubator at 37° C. In vitro transcribed genomic JFH-1 RNA was delivered to cells by liposome-mediated transfection as described by Zhong et al. (2005)(8). Infected Huh-7.5.1 cells were passaged every 3 days and used at passage <15. The presence of HCV in these cells and corresponding supernatants were determined by quantitative Polymerase Chain Reaction (qPCR) and immunofluorescence staining. Primary human hepatocytes were purchased from BD Biosciences (San Jose, Calif.) cultured on a collagen-coated 12 well plate in C+H culture media composed of DMEM supplemented with 10% heat-inactivated FBS, 200 U/mL penicillin/streptomycin, 7.5 μg/mL hydrocortisone, 20 ng/mL EGF, 14 ng/mL glucagons and 0.5 U/mL insulin. The media was supplemented with 2% DMSO for long-term culture of the primary cells.
# (§1) HCV-infected Huh-7.5.1 cells were plated on a 6-well plate at a density of 1×10^5 cells/cm^2 and cultured overnight in standard medium. Prior to the beginning of the experiment, the cells were washed 3 times with PBS and cultured with DMEM containing 5% lipoprotein-free FBS. Oleate, Insulin, Naringenin, and Brefeldin A were added at this time as described in the text. Following 24 hours of incubation, the plate was gently agitated to release mechanically bound particles, the media was collected, filtered to remove cellular debris, and stored at −80° C. for further analysis. The attached cells were washed 3 times with PBS, harvested, pelleted and stored at −80° C. for further analysis.
# Huh-7.5.1 secreted HCV core antigen was detected in the media using Wako Chemicals (Cambridge, Mass.) ORTHO HCV antigen ELISA kit. Media was used as is, and the assay was carried out according to manufacturer's directions.
# (§2) Virus samples collected in each experiment were filtered with a 0.45 μm filter and a volume of 100 μL for each sample was heated at 95° C. for 45 min. The reverse transcription reaction step was performed on a Mastercycler epgrdientS (Eppendorf) instrument using Omniscript and Sensiscript RT Kits (Qiagen). Real time PCR was performed on a Light Cycler LC-24 (Idaho Technology), using SuperScript™ III Platinum® CellsDirect Two-Step qRT-PCR Kits (Invitrogen) for quantitative PCR. For reverse transcription step, 2 μL of sample without RNA extraction were used. For real time PCR, 1 μL of the reverse transcription reactions was used. All reactions were performed according to the manufacturer's instructions using the primers detailed in Table 1.
# However, this experiment was carried out on cells continuously producing the virus. Long-term treatment could potentially have a greater effect. […] This treatment is compared to the current standard-of-care, 1000 i.u. of Interferon α (IFNα). Both treatments lowered HCV RNA to a similar level, 96±5% and 93±5% respectively.
# [2] = test system: HCV (JFH-1) infection of naïve Huh7.5.1 cells; assay: HCV infectivity of cell culture supernatant on naïve Huh7.5.1 cells; format: cell-based, Hepatitis C virus
# Method: The infectivity of the secreted HCV particles was measured as previously described (8). Naïve Huh7.5.1 cells were grown to 80% confluence and exposed to cell culture supernatants diluted 10-fold in culture media. Following 1 hour incubation at 37° C., the media was replaced, and the cells were cultured for 3 additional days. Levels of HCV infection were determined by immunofluorescence staining for HCV core protein. The viral titer is expressed as focus forming units per milliliter of supernatant (ffu/ml).
# [3] = test system: ApoB; assay: ApoB secretion by JFH-1 infected Huh-7.5.1 cells (human ApoB ELISA); format: cell-based; details: 24 hours, brefeldin A 2.5 μg/ml
# Method: as §1
# Huh-7.5.1 and primary human hepatocytes secreted ApoB was detected in the media using ALerCHEK, Inc (Portland, Me.) total human ApoB ELISA kit. Media was diluted 1:10 with the specimen diluent, and the assay was carried out according to manufacturer's directions.
# HCV-infected Huh-7.5.1 cells were plated T-25 tissue culture flasks at a density of 1×10^5 cells/cm^2 and cultured overnight in standard medium. Prior to silencing, the cells were washed 3 times with PBS and media was replaced with OptiMEM basal medium. SureSilencing shRNA (GFP) plasmids against human ApoB100 as well as shRNA plasmid control (500 ng/ml) were combined with lipofectamine 2000 in OptiMEM and incubated with the cells overnight. SureSilencing shRNA plasmids code for GFP which was used to sort the transfected Huh7.5.1 cells, using FACSAria (BD Biosciences) located at the Partners AIDS Research Center. Transfected cells (10% of the total population) were sorted directly into a 12-well plate and allowed to adhere overnight. Culture media was conditioned by the transfected cells for 24 hours and analyzed as described above.
# [4] = 400 mg/day oral, hypercholesterolemic patients; cited from earlier work
# [5] = test system: HCV (JFH-1) in Huh-7.5.1 cells; assay: Intracellular HCV RNA and core protein in infected Huh-7.5.1 cells; format: cell-based, Hepatitis C virus
# Method: as §1, §2
# Huh-7.5.1 cells were washed 3 times with PBS and fixed in 4% EM-grade paraformaldehyde for 10 minutes at room temperature. Slides were then washed with PBS and incubated in 100 mmol/L glycine for 15 minutes to saturate reactive groups. Samples were permeabilized for 15 minutes with 0.1% Triton X-100, blocked for 30 minutes with 1% bovine serum albumin and 5% donkey serum at room temperature, and stained with primary antibodies overnight at 4° C. After additional washes with PBS, samples were stained with fluorescently tagged secondary antibodies for 45 minutes at room temperature.
# [6] = 24 hours, brefeldin A 2.5 μg/ml
compound,measurement,setting,value
"C[C@H]1CCC/C=C/[C@@H]2C[C@H](O)C[C@H]2[C@H](O)/C=C/C(=O)O1 [brefeldin A, reference compound]",HCV core protein secretion (in words),[1]; [6],significantly inhibits
same,HCV positive strand RNA secretion (in words),[1]; [6],significantly inhibits
same,inhibition of infectivity of the cell supernatant,"[2]; supernatant after 24 hours stimulation, naringenin 200 μM, brefeldin A 2.5 μg/ml",89%±10%
same,ApoB secretion (in words),[3],blocked
"C[C@@H]1O[C@@H](O[C@H]2[C@H](Oc3cc(O)c4c(c3)O[C@H](c3ccc(O)cc3)CC4=O)O[C@H](CO)[C@@H](O)[C@@H]2O)[C@H](O)[C@H](O)[C@H]1O [naringin, reference compound]",lowering of LDL levels,[4],17%
IFNα [reference compound],"HCV replication (intracellular HCV RNA), long-term treatment","[5]; long-term treatment, naringenin 200 μM, IFNα 1000 i.u.",inhibited
same,"inhibition of HCV (RNA) secretion, long-term treatment","[1]; long-term daily treatment of infected Huh7.5.1 cells, naringenin 200 μM, IFNα 1000 i.u.",93±5%
insulin: insulin obtained from Eli-Lilly [reference compound],intracellular levels of HCV (positive strand) RNA,[5]; 24 hours stimulation,remained unchanged
same,HCV core protein secretion (in words),[1]; [6],downregulated
same,infectivity of the cell supernatant (in words),[2]; supernatant of stimulated infected Huh-7.5.1 cells,decreased
same,ApoB secretion (in words),[3],downregulated
